Data reported in ChEMBL document CHEMBL3045458, “Design, synthesis and biological evaluation of novel arylidine-malononitrile derivatives as non-carboxylic inhibitors of protein tyrosine phosphatase 1B” (Med Chem Res, 2013).

Legend:
Danio rerio [1] = organism: Danio rerio; assay: Toxicity in Danio rerio (zebrafish) embryo assessed as mortality at 10 uM after 24 to 72 hr by light microscopic analysis relative to control; assay type: organism-based; settings: in vivo
Danio rerio [2] = assay: Toxicity in Danio rerio (zebrafish) embryo assessed as oedema at 10 uM after 24 to 72 hr by light microscopic analysis relative to control; assay type: organism-based; settings: in vivo
Danio rerio [3] = organism: Danio rerio; assay: Toxicity in Danio rerio (zebrafish) embryo assessed as deformations at 10 uM after 24 to 72 hr by light microscopic analysis relative to control; assay type: organism-based; settings: in vivo
Danio rerio [4] = organism: Danio rerio; assay: Toxicity in Danio rerio (zebrafish) embryo assessed as developmental delays at 10 uM after 24 to 72 hr by light microscopic analysis relative to control; assay type: organism-based; settings: in vivo
[5] = target: T1, Tyrosine-protein phosphatase non-receptor type 1 (Homo sapiens) (UniProt P18031); assay: Inhibition of PTP1B (unknown origin) at 10 uM
T1 sequence (whole entry): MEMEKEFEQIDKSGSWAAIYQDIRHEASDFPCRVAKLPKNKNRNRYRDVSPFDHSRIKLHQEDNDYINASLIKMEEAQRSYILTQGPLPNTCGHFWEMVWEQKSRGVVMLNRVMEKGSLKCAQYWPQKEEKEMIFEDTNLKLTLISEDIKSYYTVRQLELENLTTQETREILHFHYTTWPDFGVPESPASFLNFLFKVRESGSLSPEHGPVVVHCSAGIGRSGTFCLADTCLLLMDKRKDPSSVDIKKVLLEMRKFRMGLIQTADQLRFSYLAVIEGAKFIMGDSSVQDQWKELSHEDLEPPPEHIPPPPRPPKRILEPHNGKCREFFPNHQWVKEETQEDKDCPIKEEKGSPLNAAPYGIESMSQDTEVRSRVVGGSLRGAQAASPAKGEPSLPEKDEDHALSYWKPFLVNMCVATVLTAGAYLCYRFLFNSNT

L6 (Rattus norvegicus) = assay: Glucose uptake in Rattus norvegicus (rat) L6 cells at 50 uM

| SMILES | Activity (Danio rerio [1]) | Activity (Danio rerio [2]) | Activity (Danio rerio [3]) | Activity (Danio rerio [4]) | inhibition [5] [%] | glucose uptake (L6 (Rattus norvegicus)) [%] |
| --- | --- | --- | --- | --- | --- | --- |
| N#CC(C#N)=Cc1ccc(OCCSc2nnc(-c3ccccc3)o2)cc1 | Non-toxic | Non-toxic | Non-toxic | Non-toxic | 54.6 | 25.3 |
| COc1ccccc1-c1nnc(SCCOc2ccc(C=C(C#N)C#N)cc2)o1 | Non-toxic | Non-toxic | Non-toxic | Non-toxic | 50 | 38.5 |
| COc1cccc(-c2nnc(SCCOc3ccc(C=C(C#N)C#N)cc3)o2)c1 | – | – | – | – | 39 | 13.5 |
| N#CC(C#N)=Cc1ccc(OCCSc2nnc(-c3cccc([N+](=O)[O-])c3)o2)cc1 | – | – | – | – | 41.4 | 11.8 |
| N#CC(C#N)=Cc1ccc(OCCSc2nnc(-c3ccc(F)cc3)o2)cc1 | – | – | – | – | 30.4 | 13.3 |
| N#CC(C#N)=Cc1ccc(OCCSc2nnc(-c3ccccc3Cl)o2)cc1 | – | – | – | – | 23.4 | 26.6 |
| Cc1ccc(-c2nnc(SCCOc3ccc(C=C(C#N)C#N)cc3)o2)cc1 | – | – | – | – | 44.5 | 18.8 |
| N#CC(C#N)=Cc1ccc(OCCSc2nnc(-c3ccc(Cl)cc3)o2)cc1 | – | – | – | – | 34.3 | 24.2 |
